In publication PMC2708596 (Toxicological Sciences, 2009):
Like-named read-outs stand apart in the source and are kept apart here.

Assays:
[1] = Male rat, Kidney, ref Punt et al. (2008), cited from earlier work
[2] = Male rat, Liver; estragole metabolites; ref Punt et al. (2008); cited from earlier work
[3] = PBBK model for estragole in human; settings: 0.001 mg/kg bw, after 8 h, compared with Sangster et al., 1987
[4] = Male rat, Lung, ref Punt et al. (2008), cited from earlier work
[5] = Phase I metabolism of estragole by human liver microsomes; assay type: in vitro ADME
[6] = humans, ref Sangster et al., 1987, cited from earlier work
[7] = rats, 0.05 mg/kg bw; ref Anthony et al., 1987; cited from earlier work

Row | predicted formation compared with the reported in vivo level [3] | SMILES | Scaled Vmax (app) ([1]; microsomal protein yield 7 mg/g) | Catalytic efficiency [1] | Km ([1]; read-out: Km (app)) [µM] | Catalytic efficiency [2] | Scaled Vmax (app) [2] | Scaled Vmax (app) ([4]; microsomal protein yield 20 mg/g) | Catalytic efficiency [4] | Km ([4]; read-out: Km (app)) [µM] | Scaled Vmax (app) ([5]; Human, Liver, estragole metabolites, microsomal protein yield 32 mg/g) | Catalytic efficiency ([5]; Human, Liver, estragole metabolites, scaled Vmax (app)/Km(app)) | In vitro catalytic efficiency ([5]; Vmax (app)/Km(app) × 1000 μl/ml) | dose excreted as 14CO2 (level of O-demethylation) ([6]; 0.001 mg/kg bw, after 8 h) | radioactivity excreted in the urine ([6]; 0.001 mg/kg bw, after 8 h) | radioactivity excreted in the urine ([6]; 0.001 mg/kg bw, after 24 h) | radioactivity excreted in the urine ([6]; 0.001 mg/kg bw, after 48 h) | radioactivity not recovered ([6]; within 48 h) [%] | oral dose accounted for by O-demethylation [7]
1 | fourfold lower | C=CCc1ccc(O)cc1 [4-allylphenol] | 0.2 μmol h^−1 (g tissue)^−1 | 400 ml h^−1 (g liver)^−1 | 0.5 | 3 ml h^−1 (g liver)^−1 | 1.6 μmol h^−1 (g tissue)^−1 | 0.8 μmol h^−1 (g tissue)^−1 | 1600 ml h^−1 (g liver)^−1 | 0.5 | 0.7 μmol h^−1 (g tissue)^−1 | 2 ml h^−1 (g liver)^−1 | 1.3 μl min^−1 (mg microsomal protein)^−1 |  |  |  |  |  | 
2 |  | C=CCc1ccc(OC)cc1 [estragole, 4-allylanisol] |  |  |  |  |  |  |  |  |  |  |  | ~10 % of the dose | 31–37 % of the dose | 47–53 % of the dose | 54–62 % of the dose | ~30 | 53 % of the oral dose
